# In US6388071B2, “Alkynyl phenyl heteroaromatic glucokinase activators” (Hoffmann-La Roche Inc., priority 2000, dated 2002):
row,Structure (SMILES),melting point
1,"CC(O)CC#Cc1ccc(C(CC2CCCC2)C(=O)Nc2nccs2)cc1 (stereo not drawn) [Example 5, 3-Cyclopentyl-2-[4-(4-hydroxy-pent-1-ynyl)-phenyl]-N-thiazol-2-yl-propionamide]",162 to 163 °C
2,"COCC#Cc1ccc(C(CC2CCCC2)C(=O)Nc2nccs2)cc1 (stereo not drawn) [Example 3, 3-Cyclopentyl-2-[4-(3-methoxy-prop-1-ynyl)-phenyl]-N-thiazol-2-yl-propionamide]",170 to 172 °C
3,"O=C(Nc1nccs1)C(CC1CCCC1)c1ccc(C#CC2(O)CCCCC2)cc1 (stereo not drawn) [Example 2, 3-Cyclopentyl-2-[4-(1-hydroxy-cyclohexylethynyl)-phenyl]-N-thiazol-2-yl-propionamide]",172 to 173 °C
4,"C#Cc1ccc(C(CC2CCCC2)C(=O)Nc2nccs2)cc1 (stereo not drawn) [Example 1, 3-Cyclopentyl-2-(4-ethynyl-phenyl)-N-thiazol-2-yl-propionamide]",181 to 183 °C
5,CN(C)CC#Cc1ccc(C(CC2CCCC2)C(=O)Nc2nccs2)cc1 (stereo not drawn) [Example 7],164 to 167 °C
6,"CCC(C)(O)C#Cc1ccc(C(CC2CCCC2)C(=O)Nc2nccs2)cc1 (stereo not drawn) [Example 4, 3-Cyclopentyl-2-[4-(3-hydroxy-3-methyl-pent-1-ynyl)-phenyl]-N-thiazol-2-yl-propionamide]",172 to 174 °C
7,"O=C(Nc1nccs1)C(CC1CCCC1)c1ccc(C#Cc2ccccn2)cc1 (stereo not drawn) [Example 9, 3-Cyclopentyl-2-(4-pyridin-2-ylethynyl-phenyl)-N-thiazol-2-yl-propionamide]",185 to 187 °C
8,"O=C(Nc1nccs1)C(CC1CCCC1)c1ccc(C#CCO)cc1 (stereo not drawn) [Example 6, 3-Cyclopentyl-2-[4-(3-hydroxy-prop-1-ynyl)-phenyl]-N-thiazol-2-yl-propionamide]",220 to 222 °C
9,"O=C(Nc1nccs1)C(CC1CCCC1)c1ccc(C#Cc2cncnc2)cc1 (stereo not drawn) [Example 10, 3-Cyclopentyl-2-(4-pyrimidin-5-ylethynyl-phenyl)-N-thiazol-2-yl-propionamide]",149 to 151 °C
